Source: PubChem BioAssay (NCI)
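Compound exposure: 48 hours, 5 concentrations, 96-well plates. The concentration for full growth arrest is given as TGI.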

What was measured:
Assay in all cases: DTP human tumour cell line panel, 48 h
SR leukemia = tested on: SR leukemia
KM12 colon = tested on: KM12 colon
SK-OV-3 ovarian = tested on: SK-OV-3 ovarian
MALME-3M melanoma = tested on: MALME-3M melanoma
HCT-116 colon = tested on: HCT-116 colon
SN12C renal = tested on: SN12C renal
HCC-2998 colon = tested on: HCC-2998 colon
HOP-62 NSCLC = tested on: HOP-62 NSCLC
LOX IMVI melanoma = tested on: LOX IMVI melanoma
SK-MEL-2 melanoma = tested on: SK-MEL-2 melanoma

Measured: TGI

COCC(OC)C(CC=C(C#N)C#N)OC (stereo not given)
> 100 µM: all assays above
